The source of these data is paper PMC10460880, “Cathepsin K‐Activated Probe for Fluoro‐Photoacoustic Imaging of Early Osteolytic Metastasis” (Advanced Science, 2023).

The subject of experiment [1] is CTSK-overexpressing OCs on calf bone slice. In words: In vitro bone resorption imaging assay. It counts as cell-based, C57BL/6J mice. The note with it: 2-CP 50 mM, 37 °C, 30 min, then CTSK-APPA 5 μM, 2 h. As to the method: PS. RAW 264.7 cells and BMMs were maintained in an atmosphere of 5% CO2 and 95% humidified air at 37 °C. The medium was changed every day.
Cell cytotoxicity assay. MDA-MB-231/Luc and RAW 264.7 cells were seeded in 96-well plates (5×10^3 cells per well) for 24 h and then incubated with CTSK-APPA or CTSK-APP (5, 10, 20, 50 μM) or saline for 24 h. The medium was removed and cells were incubated with CCK-8 (0.5 mg/mL) for another 1 h. The absorbance of the mixture at 450 nm was measured by using a microplate reader. Cell viability was expressed by the ratio of the absorbance of the cells incubated with the probes to that of the cells incubated with culture medium only.
In vitro osteoclast differentiation. Bone marrow-derived macrophages were isolated from the femurs and tibias of 4-week-old C57BL/6J mice and cultured in a complete medium containing M-CSF (30 ng/mL) for 4 days. BMMs were harvested to the 24-well plates (1×10^4 per well) and cultured in the complete medium containing M-CSF (30 ng/mL) and RANKL (100 ng/mL) for another 4 days. The osteoclasts were fixed and stained by using acid phosphatase and a leukocyte kit according to the manufacturer’s procedures.
In vitro bone resorption imaging assay. […]
Fluorescence images were captured by using the IVIS Spectrum imaging system with excitation […]

The subject of experiment [2] is MDA-MB-231/Luc-induced osteolytic metastasis. In words: Real-time NIR fluorescence and PA imaging of osteolytic metastasis. The note with it: 2-CP 50 mM, 200 μL, 1 h before probe; n = 3. It counts as in vivo, BALB/c nude mice. As to the method: page 5: PS. RAW 264.7 cells and BMMs were maintained in an atmosphere of 5% CO2 and 95% humidified air at 37 °C. The medium was changed every day. Cell cytotoxicity assay. MDA-MB-231/Luc and RAW 264.7 cells were seeded in 96-well plates (5×10^3 cells per well) for 24 h and then incubated with CTSK-APPA or CTSK-APP (5, 10, 20, 50 μM) or saline for 24 h. The medium was removed and cells were incubated with CCK-8 (0.5 mg/mL) for another 1 h. The absorbance of the mixture at 450 nm was measured by using a microplate reader. Cell viability was expressed by the ratio of the absorbance of the cells incubated with the probes to that of the cells incubated with culture medium only. In vitro osteoclast differentiation. Bone marrow-derived macrophages were isolated from the femurs and tibias of 4-week-old C57BL/6J mice and cultured in a complete medium containing M-CSF (30 ng/mL) for 4 days. […] Fluorescence images were captured by using the IVIS Spectrum imaging system with excitation at 660 ± 10 nm and emission at 710 ± 10 nm. […] The bone marrow toxicity of CTSK-APPA and CTSK-APP was assessed by blood analyses in mice. […] The red blood count (RBC) and white blood count (WBC) were further measured. […] The supernatants containing excreted probes were quantified by using a UV-vis absorption spectrometer. […]

For the next experiment, the system named is OCs. As to the kind of experiment: Cell selectivity experiment, osteoclasts. It is filed as cell-based. Particulars: n = 3.

With `N#Cc1ncccn1` [Probe 2-CP, 2-Cyanopyrimidine, reference compound], the “effect of inhibitor pre-treatment on CTSK-APPA fluorescence of bone-resorption slice” value in experiment [1] is recorded as “remarkably suppressed NIR fluorescence”. In experiment [2], the “effect of preinjected inhibitor on NIR fluorescence and PA signals of CTSK-APPA” value is “reduced to the CTSK‐APP levels”. In addition, the “effect of inhibitor on CTSK-APPA fluorescence in OCs” value in the experiment on OCs is “effectively reduced”.
